One test deals with TRPM8 (Rattus norvegicus, UniProt Q8R455). Description: Confirmation test of inhibitory effects on icilin-induced wet-dog shakes. It counts as in vivo, female SD rats. Details: test compounds were orally administered to female SD rats; from tissue; host or cells: whole animal (female SD rats), endogenous channel. Particulars: dose 3 mg/kg orally, icilin 1 mg/kg i.p. after 1 hour, shakes counted for 5 minutes. The procedure: Test compounds were dissolved in dimethylacetamide (wako), and 0.5% methylcellulose solution (wako) was added to make the solution or suspension containing 5% of dimethylacetamide. At a dose of 3 or 10 mg/kg/5 mL of test compounds were orally administered to female SD rats. After 1 hour, wet-dog shakes were induced by the intrapenitoneal injection of icilin (1 mg/kg) which was dissolved in polyethylene glycol 400 (wako). From 5 minutes after the administration of icilin, wet-dog shakes were counted for 5 minutes. For control example, vehicle (a mixture of dimethylacetamide (wako): 0.5% methylcellulose (wako)=5:95) was administrated similarly, and the number of wet-dog shakes was counted in the same manner. A percent inhibition of wet-dog shakes by test compound was calculated from the following formula: [1-(test compound wet-dog shake count/vehicle wet-dog shake count)]×100.
Chain of TRPM8 (Q8R455 whole entry): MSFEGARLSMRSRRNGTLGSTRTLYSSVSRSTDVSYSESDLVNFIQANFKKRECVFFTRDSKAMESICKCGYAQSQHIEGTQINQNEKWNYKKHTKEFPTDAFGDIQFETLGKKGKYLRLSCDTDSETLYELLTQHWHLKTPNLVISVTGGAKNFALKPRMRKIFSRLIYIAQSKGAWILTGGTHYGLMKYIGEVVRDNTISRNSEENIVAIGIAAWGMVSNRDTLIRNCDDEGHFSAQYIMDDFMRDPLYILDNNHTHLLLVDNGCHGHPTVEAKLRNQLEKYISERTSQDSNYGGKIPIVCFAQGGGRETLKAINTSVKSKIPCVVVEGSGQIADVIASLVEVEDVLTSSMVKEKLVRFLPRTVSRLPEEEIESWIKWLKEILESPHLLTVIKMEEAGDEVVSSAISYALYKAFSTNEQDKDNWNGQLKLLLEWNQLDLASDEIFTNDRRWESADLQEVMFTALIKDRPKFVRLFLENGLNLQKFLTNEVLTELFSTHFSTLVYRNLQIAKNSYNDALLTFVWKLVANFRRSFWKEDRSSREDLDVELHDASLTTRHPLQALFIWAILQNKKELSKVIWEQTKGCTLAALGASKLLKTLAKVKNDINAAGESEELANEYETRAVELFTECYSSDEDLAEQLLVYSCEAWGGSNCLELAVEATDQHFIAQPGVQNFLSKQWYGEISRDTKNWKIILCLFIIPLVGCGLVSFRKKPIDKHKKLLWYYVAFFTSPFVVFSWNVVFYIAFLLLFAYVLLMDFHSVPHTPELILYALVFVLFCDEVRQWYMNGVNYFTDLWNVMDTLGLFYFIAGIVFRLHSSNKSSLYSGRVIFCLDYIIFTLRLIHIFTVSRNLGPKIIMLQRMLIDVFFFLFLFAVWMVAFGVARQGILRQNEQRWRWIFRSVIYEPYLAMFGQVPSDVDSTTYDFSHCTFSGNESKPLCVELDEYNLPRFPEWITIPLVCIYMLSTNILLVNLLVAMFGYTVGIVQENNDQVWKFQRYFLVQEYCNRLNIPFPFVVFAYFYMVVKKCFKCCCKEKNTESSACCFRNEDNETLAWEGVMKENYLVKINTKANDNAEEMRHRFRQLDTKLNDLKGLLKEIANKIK
As for `Cc1cnoc1C(=O)N([C@@H]1CCc2c(F)cc(Cl)cc21)[C@@H](C(N)=O)c1ccccc1` [Example 2-150LP, N-[(R)-carbamoylphenylmethyl]-N-[(R)-6-chloro-4-fluoroindan-1-yl]-4-methylisoxazole-5-carboxamide], the “% inhibition of Wet-Dog Shake” value was 49%.

For the molecule `NC(=O)[C@@H](c1ccccc1)N(C(=O)c1ccccc1)[C@@H]1COc2c(F)cc(Cl)cc21` (racemic) [Example 2-252M, N-[(RS)-carbamoylphenylmethyl]-N-[(SR)-5-chloro-7-fluoro-2,3-dihydrobenzofuran-3-yl]benzamide], the “% inhibition of Wet-Dog Shake” value came out at 31%.

In the case of `Cc1ncsc1C(=O)N([C@@H]1CCc2ccc(Cl)cc21)[C@@H](C(N)=O)c1ccccc1` [Example 2-88LP, N-[(R)-carbamoylphenylmethyl]-N-[(R)-6-chloroindan-1-yl]-4-methylthiazole-5-carboxamide], the “% inhibition of Wet-Dog Shake” value worked out at 46%.

Take `CSc1ncccc1C(=O)N([C@@H]1CCc2c(F)cc(Cl)cc21)[C@@H](C(N)=O)c1ccccc1` [Example 2-128LP, N-[(R)-carbamoylphenylmethyl]-N-[(R)-6-chloro-4-fluoroindan-1-yl]-2-(methylsulfanyl)nicotinamide]: the “% inhibition of Wet-Dog Shake” value worked out at 65%.

For `NC(=O)[C@@H](c1cncc(F)c1)N(C(=O)c1ccccc1O)[C@@H]1CCc2c(F)cc(Cl)cc21` [Example 19-31LP, N-[(R)-Carbamoyl(5-fluoropyridin-3-yl)methyl]-N-[(R)-6-chloro-4-fluoroindan-1-yl]-2-hydroxybenzamide], the “% inhibition of Wet-Dog Shake” value came to 71%.

Turning to `Cn1nccc1C(=O)N([C@@H]1CCc2c(F)cc(Cl)cc21)[C@@H](C(N)=O)c1ccccc1` [Example 2-133LP, N-[(R)-carbamoylphenylmethyl]-N-[(R)-6-chloro-4-fluoroindan-1-yl]-2-methyl-2H-pyrazole-3-carboxamide], the “% inhibition of Wet-Dog Shake” value is recorded as 55%.

Regarding `COc1ncccc1C(=O)N([C@@H]1CCc2c(F)cc(F)cc21)[C@@H](C(N)=O)c1ccccc1` [Example 2-36LP, N-[(R)-carbamoylphenylmethyl]-N-[(R)-4,6-difluoroindan-1-yl]-2-methoxynicotinamide], the “% inhibition of Wet-Dog Shake” value came to 74%.

For `NC(=O)[C@@H](c1cnccn1)N(C(=O)c1ccccc1O)[C@@H]1CCc2c(F)cc(Cl)cc21` [Example 4-8, N-[(R)-carbamoylpyrazin-2-ylmethyl]-N-[(R)-6-chloro-4-fluoroindan-1-yl]-2-hydroxybenzamide], the “% inhibition of Wet-Dog Shake” value is 37%.

In the case of `Cc1cccc(C(=O)N([C@@H]2CCc3c(F)cc(Cl)cc32)[C@@H](C(N)=O)c2ccccc2)c1O` [Example 4-9, N-[(R)-carbamoylphenylmethyl]-N-[(R)-6-chloro-4-fluoroindan-1-yl]-2-hydroxy-3-methylbenzamide], the “% inhibition of Wet-Dog Shake” value is 36%.

Turning to `COc1ccccc1C(=O)N([C@@H]1CCc2c(F)cc(Cl)cc21)[C@@H](C(N)=O)c1cccnc1` [Example 2-118LP, N-[(R)-carbamoylpyridin-3-ylmethyl]-N-[(R)-6-chloro-4-fluoroindan-1-yl]-2-methoxybenzamide], the “% inhibition of Wet-Dog Shake” value is 62%.

As to `Cc1ncncc1C(=O)N([C@@H]1CCc2c(F)cc(Cl)cc21)[C@@H](C(N)=O)c1ccccc1` [Example 2-154LP, N-[(R)-carbamoylphenylmethyl]-N-[(R)-6-chloro-4-fluoroindan-1-yl]-4-methylpyrimidine-5-carboxamide], the “% inhibition of Wet-Dog Shake” value is 36%.

With `Cc1nccnc1C(=O)N([C@@H]1CCc2c(F)cc(Cl)cc21)[C@@H](C(N)=O)c1ccccc1` [Example 2-175LP, N-[(R)-carbamoylphenylmethyl]-N-[(R)-6-chloro-4-fluoroindan-1-yl]-3-methylpyrazine-2-carboxamide], the “% inhibition of Wet-Dog Shake” value came to 40%.

As for `Cc1ccncc1C(=O)N([C@@H]1CCc2c(F)cc(Cl)cc21)[C@@H](C(N)=O)c1ccccc1` [Example 2-100LP, N-[(R)-carbamoylphenylmethyl]-N-[(R)-6-chloro-4-fluoroindan-1-yl]-4-methylnicotinamide], the “% inhibition of Wet-Dog Shake” value came to 47%.

As for `NC(=O)[C@@H](c1cccnc1)N(C(=O)c1ccccc1)[C@@H]1CCc2ccc(Cl)cc21` [Example 2-87LP, N-[(R)-carbamoylpyridin-3-ylmethyl]-N-[(R)-6-chloroindan-1-yl]benzamide], the “% inhibition of Wet-Dog Shake” value came to 36%.

Consider `CSc1ncccc1C(=O)N([C@@H]1CCc2ccc(Cl)cc21)[C@@H](C(N)=O)c1ccccc1` [Example 2-125LP, N-[(R)-carbamoylphenylmethyl]-N-[(R)-6-chloroindan-1-yl]-2-(methylsulfanyl)nicotinamide], for which the “% inhibition of Wet-Dog Shake” value came to 37%.

As for `NC(=O)[C@@H](c1ccccc1)N(C(=O)c1cnccn1)[C@@H]1CCc2c(F)cc(Cl)cc21` [Example 2-179LP, N-[(R)-carbamoylphenylmethyl]-N-[(R)-6-chloro-4-fluoroindan-1-yl]pyrazine-2-carboxamide], the “% inhibition of Wet-Dog Shake” value came to 32%.

`NC(=O)[C@@H](c1cccnc1)N(C(=O)c1ccccc1O)[C@@H]1CCc2c(F)cc(Cl)cc21` [Example 4-5, N-[(R)-carbamoylpyridin-3-ylmethyl]-N-[(R)-6-chloro-4-fluoroindan-1-yl]-2-hydroxybenzamide]: the “% inhibition of Wet-Dog Shake” value amounted to 76%.

The test is the same for the next values; noted with them: dose 10 mg/kg orally, icilin 1 mg/kg i.p. after 1 hour, shakes counted for 5 minutes.
With `Cc1ncccc1C(=O)N([C@@H]1CCc2c(F)cc(Cl)cc21)[C@@H](C(N)=O)c1cccc(N(C)C)c1` [Example 18-13LP, N-[(R)-carbamoyl-(3-dimethylaminophenyl)methyl]-N-[(R)-6-chloro-4-fluoroindan-1-yl]-2-methylnicotinamide], the “% inhibition of Wet-Dog Shake” value was 86%.

As to `Cc1ccc(C(=O)N([C@@H]2CCc3c(F)cc(Cl)cc32)[C@@H](C(N)=O)c2cccnc2)c(O)c1` [Example 19-12LP, N-[(R)-carbamoylpyridin-3-ylmethyl]-N-[(R)-6-chloro-4-fluoroindan-1-yl]-2-hydroxy-4-methylbenzamide], the “% inhibition of Wet-Dog Shake” value is listed as 82%.

`NC(=O)[C@@H](c1cccnc1)N(C(=O)c1cccc(F)c1O)[C@@H]1CCc2c(F)cc(Cl)cc21` [Example 19-25LP, N-[(R)-carbamoylpyridin-3-ylmethyl]-N-[(R)-6-chloro-4-fluoroindan-1-yl]-3-fluoro-2-hydroxybenzamide]: the “% inhibition of Wet-Dog Shake” value is 86%.

In the case of `NC(=O)[C@@H](c1cccnc1)N(C(=O)c1ccc(Cl)cc1O)[C@@H]1CCc2c(F)cc(Cl)cc21` [Example 19-17LP, N-[(R)-carbamoylpyridin-3-ylmethyl]-4-chloro-N-[(R)-6-chloro-4-fluoroindan-1-yl]-2-hydroxybenzamide], the “% inhibition of Wet-Dog Shake” value was determined as 66%.

As to `Cc1cccc(C(=O)N([C@@H]2CCc3c(F)cc(Cl)cc32)[C@@H](C(N)=O)c2cccnc2)c1O` [Example 19-41LP, N-[(R)-Carbamoylpyridin-3-ylmethyl]-N-[(R)-6-chloro-4-fluoroindan-1-yl]-2-hydroxy-3-methylbenzamide], the “% inhibition of Wet-Dog Shake” value is 92%.

Take `NC(=O)[C@@H](c1ccccc1)N(C(=O)c1ccccc1)[C@@H]1CCc2ccc(OC(F)F)cc21` [Example 2-11LP, N-[(R)-carbamoylphenylmethyl]-N-[(R)-6-difluoromethoxyindan-1-yl]benzamide]: the “% inhibition of Wet-Dog Shake” value amounted to 85%.

In the case of `Cc1ncccc1C(=O)N([C@@H]1CCc2c(F)cc(Cl)cc21)[C@@H](C(N)=O)c1cccc(N)c1` [Example 21-1, N-[(R)-(3-Aminophenyl)carbamoylmethyl]-N-[(R)-6-chloro-4-fluoroindan-1-yl]-2-methylnicotinamide], the “% inhibition of Wet-Dog Shake” value was found to be 99%.

For the molecule `NC(=O)[C@@H](c1cccc(N)c1)N(C(=O)c1ccccc1O)[C@@H]1CCc2c(F)cc(Cl)cc21` [Example 21-2, N-[(R)-(3-Aminophenyl)carbamoylmethyl]-N-[(R)-6-chloro-4-fluoroindan-1-yl]-2-hydroxybenzamide], the “% inhibition of Wet-Dog Shake” value is 94%.

Take `NC(=O)[C@@H](c1cccnc1)N(C(=O)c1c(O)cccc1F)[C@@H]1CCc2c(F)cc(Cl)cc21` [Example 19-15LP, N-[(R)-carbamoylpyridin-3-ylmethyl]-N-[(R)-6-chloro-4-fluoroindan-1-yl]-2-fluoro-6-hydroxybenzamide]: the “% inhibition of Wet-Dog Shake” value is on record as 72%.

Consider `NC(=O)[C@@H](c1ccccc1)N(C(=O)c1cccnc1)[C@@H]1CCc2ccc(OC(F)F)cc21` [Example 2-26LP, N-[(R)-carbamoylphenylmethyl]-N-[(R)-6-difluoromethoxyindan-1-yl]nicotinamide], for which the “% inhibition of Wet-Dog Shake” value amounted to 83%.

As for `NC(=O)[C@@H](c1cccnc1)N(C(=O)c1ccccc1)[C@@H]1CCc2c(F)cc(F)cc21` [Example 2-76LP, N-[(R)-carbamoylpyridin-3-ylmethyl]-N-[(R)-4,6-difluoroindan-1-yl]benzamide], the “% inhibition of Wet-Dog Shake” value stood at 95%.

Regarding `Cc1cc(F)c2c(c1)[C@H](N(C(=O)c1cccnc1)[C@@H](C(N)=O)c1ccccc1)CC2` [Example 2-40LP, N-[(R)-carbamoylphenylmethyl]-N-[(R)-4-fluoro-6-methylindan-1-yl]nicotinamide], the “% inhibition of Wet-Dog Shake” value was 95%.

`NC(=O)[C@@H](c1cccnc1)N(C(=O)c1ccc(F)cc1O)[C@@H]1CCc2c(F)cc(Cl)cc21` [Example 19-16LP, N-[(R)-carbamoylpyridin-3-ylmethyl]-N-[(R)-6-chloro-4-fluoroindan-1-yl]-4-fluoro-2-hydroxybenzamide]: the “% inhibition of Wet-Dog Shake” value worked out at 63%.

These data come from patent publication US9458092B2, “α-Substituted glycinamide derivative” (KISSEI PHARMACEUTICAL CO., LTD., priority 2013, dated 2016).
